The subject of series [1] is MRSA ATCC 43300. Description: Antibacterial MIC assay, serial dilution. The class given is cell-based, Staphylococcus aureus. Conditions: for Selectivity index (CC50/MIC) MRSA 43300: CC50 Vero cells / MIC; for MIC: Staphylococcus aureus, read-out: MIC MRSA ATCC 43300. The method, boiled down: (§1)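 Broth microdilution in cation-adjusted Mueller-Hinton broth with an inoculum at OD600 0.004 and final compound levels of 128–1 μg/mL. Plates ran 16–18 h at 37 °C, or 24 h for VRE. OD600 was normalized to controls, and MIC = lowest concentration inhibiting >90% growth; two biological replicates were run in duplicate.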

Series [2] has as its system S. aureus ATCC 6538P. Description: Antibacterial MIC assay, serial dilution. The class given is cell-based, Staphylococcus aureus. Conditions: for Selectivity index (CC50/MIC) S. aureus 6538P: CC50 Vero cells / MIC; for MIC: Staphylococcus aureus, ATCC 6538P / ATCC 6539P, read-out: MIC S. aureus ATCC 6539P. The method, boiled down: as §1
Series [3] concerns S. aureus ΔNorA. Description: Antibacterial MIC assay, serial dilution. It counts as cell-based, Staphylococcus aureus. The note with it: for Selectivity index (CC50/MIC) S. aureus ΔNorA: CC50 Vero cells / MIC; for MIC: Staphylococcus aureus, read-out: MIC S. aureus ∆NorA. The method in brief: as §1
Series [4] concerns Methicillin resistant Staphylococcus epidermidis (MRSE) ATCC 35984 NRS101. Description: Antibacterial MIC assay, serial dilution. It counts as cell-based. The note with it: for Selectivity index (CC50/MIC) MRSE 35984: CC50 Vero cells / MIC; for MIC: Staphylococcus epidermidis, read-out: MIC Methicillin resistant Staphylococcus epidermidis (MRSE) ATCC 35984 NRS101.
Series [5] deals with Methicillin resistant S. aureus (MRSA) USA300. Description: Antibacterial MIC assay, serial dilution. The class given is cell-based, Staphylococcus aureus. The note with it: for Selectivity index (CC50/MIC) MRSA USA300: CC50 Vero cells / MIC; for MIC: Staphylococcus aureus, read-out: MIC Methicillin resistant S. aureus (MRSA) USA300.
The test system of series [6] is Vancomycin resistant E. faecalis NR-31972 (VRE). Description: Antibacterial MIC assay, serial dilution. Conditions: for Selectivity index (CC50/MIC) VRE NR-31972: CC50 Vero cells / MIC; for MIC: Enterococcus faecalis, VRE, 24 h, read-out: MIC Vancomycin resistant E. faecalis NR-31972 (VRE). It counts as cell-based, Enterococcus faecalis. The method, boiled down: as §1

The subject of series [7] is Acinetobacter baumannii ATCC 17978. Description: Antibacterial MIC assay, serial dilution. The class given is cell-based. Conditions: ATCC17978, range from biological replicates. The method, boiled down:
as §1

Series [8] relates to Enterococcus faecalis ATCC 29212. Description: Antibacterial MIC assay, serial dilution. Conditions: for Selectivity index (CC50/MIC) E. faecalis 29212: CC50 Vero cells / MIC; for MIC: Enterococcus faecalis, ATCC 29112 / ATCC 29212, 24 h, read-out: MIC E. faecalis ATCC 29112. It counts as cell-based.
The test system of series [9] is Klebsiella pneumoniae ATCC 29665. Description: Antibacterial MIC assay, serial dilution. The class given is cell-based. Conditions: for MIC: Klebsiella pneumoniae, ATCC29665, range from biological replicates, read-out: MIC K. pneumoniae ATCC-29665. The method, boiled down:
as §1

Series [10] has as its system Pseudomonas aeruginosa. Description: Antibacterial MIC assay, serial dilution. The note with it: for MIC: Pseudomonas aeruginosa, range from biological replicates, read-out: MIC P. aeruginosa. It counts as cell-based. The method in brief:
as §1

Series [11] deals with Vancomycin resistant Enterococcus faecium NR-31909 (VRE). Description: Antibacterial MIC assay, serial dilution. It counts as cell-based. Conditions: for Selectivity index (CC50/MIC) VRE NR-31909: CC50 Vero cells / MIC; for MIC: Enterococcus faecium, VRE, 24 h, read-out: MIC Vancomycin resistant Enterococcus faecium NR-31909 (VRE). The method, boiled down:
as §1

Series [12] relates to Escherichia coli BAA-2452. Description: Antibacterial MIC assay, serial dilution. Conditions: BAA2452, read-out: MIC Escherichia coli BAA-2452. It counts as cell-based.
A short description of series [13]: Cytotoxicity assay (MTS/PMS). The class given is cell-based. The note with it: monkey, Vero cells (monkey kidney epithelial cells); 24 h treatment, MTS/PMS, average of three biological replicates; read-out: CC50 against Vero cells. The method in brief:
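Vero cells were allowed to adhere for 24 h in DMEM with 10% FBS at 37 °C, then exposed to serial compound dilutions for 24 h. Viability was measured by MTS/PMS (4 h, absorbance at 490 nm) and normalized to vehicle. CC50 is the concentration giving 50% viability, averaged over three biological replicates.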

Values after ≈ are worked out from the molar mass of the structure shown.

For the compound `CN(CC[C@H](N)CC(=O)N[C@H]1C=C[C@H](n2ccc(NC(=O)c3ccc(NC(=O)[C@@](C)(N)CO)cc3)nc2=O)O[C@@H]1C(=O)NCCc1ccccc1)C(=N)N` [Blastimidine P5], in series [1], the “Selectivity index (CC50/MIC) MRSA 43300” value is reported as more than 8.0. The minimal inhibitory concentration (MIC) in [1] is 32 µg/mL (≈ 42.9 µM); in [2] it was 16 µg/mL (≈ 21.5 µM); in series [3], 16 µg/mL (≈ 21.5 µM); in [4], 16 µg/mL (≈ 21.5 µM); in series [5], 16 µg/mL (≈ 21.5 µM); in [6], 32 µg/mL (≈ 42.9 µM). The MIC in series [7] was more than 128 µg/mL; in series [8] it was 32 µg/mL (≈ 42.9 µM); in series [9], 64 to 128 µg/mL (≈ 85.8 to 172 µM); in series [10] it was more than 128 µg/mL; in [11], 16 to 32 µg/mL (≈ 21.5 to 42.9 µM); in series [12], 128 µg/mL (≈ 172 µM). In addition, the “Selectivity index (CC50/MIC) S. aureus 6538P” value in [2] is listed as more than 16. The “Selectivity index (CC50/MIC) S. aureus ΔNorA” value in series [3] is more than 16. The “Selectivity index (CC50/MIC) MRSE 35984” value in [4] is more than 16. In [5], the “Selectivity index (CC50/MIC) MRSA USA300” value is listed as more than 16. Further, the “Selectivity index (CC50/MIC) VRE NR-31972” value in series [6] was more than 8.0. Also, in [8], the “Selectivity index (CC50/MIC) E. faecalis 29212” value is more than 8.0. The “Selectivity index (CC50/MIC) K. pneumoniae” value in series [9] (CC50 Vero cells / MIC) is more than 3.0. In [11], the “Selectivity index (CC50/MIC) VRE NR-31909” value is on record as more than 11. Also, the CC50 at 24 h in series [13] was more than 256 µg/mL.
In the case of `CNc1ccc(C(=O)Nc2ccn([C@H]3C=C[C@H](NC(=O)C[C@@H](N)CCN(C)C(=N)N)[C@@H](C(=O)NCCc4ccccc4)O3)c(=O)n2)cc1` [Blastimidine P3], in [1], the “Selectivity index (CC50/MIC) MRSA 43300” value is recorded as more than 3.0. In addition, the MIC is 64 to 128 µg/mL (≈ 97.2 to 194 µM) in [1]; 16 to 32 µg/mL (≈ 24.3 to 48.6 µM) in series [2]; 4 to 8 µg/mL (≈ 6.07 to 12.1 µM) in [3]; 8 µg/mL (≈ 12.1 µM) in [4]; 32 µg/mL (≈ 48.6 µM) in series [5]; 16 µg/mL (≈ 24.3 µM) in series [6]. The MIC was more than 128 µg/mL in [7]; 8 to 16 µg/mL (≈ 12.1 to 24.3 µM) in [8]; more than 128 µg/mL in [9]; 64 to 128 µg/mL (≈ 97.2 to 194 µM) in series [10]; 128 µg/mL (≈ 194 µM) in series [11]; 64 µg/mL (≈ 97.2 µM) in [12]. For the same compound, in series [2], the “Selectivity index (CC50/MIC) S. aureus 6538P” value is more than 12. In addition, in series [3], the “Selectivity index (CC50/MIC) S. aureus ΔNorA” value is more than 48. Besides, the “Selectivity index (CC50/MIC) MRSE 35984” value in series [4] is more than 32. For the same compound, in series [5], the “Selectivity index (CC50/MIC) MRSA USA300” value was more than 8.0. The “Selectivity index (CC50/MIC) VRE NR-31972” value in series [6] was more than 16. Besides, the “Selectivity index (CC50/MIC) E. faecalis 29212” value in series [8] is reported as more than 24. Further, in series [10] (CC50 Vero cells / MIC), the “Selectivity index (CC50/MIC) P. aeruginosa” value was more than 3.0. For the same compound, in series [11], the “Selectivity index (CC50/MIC) VRE NR-31909” value is listed as more than 2.0. For the same compound, the CC50 at 24 h in series [13] was more than 256 µg/mL.

By MIC is commonly meant the smallest concentration in the dilution series that meets the test's criterion for growth inhibition. Usually CC50 stands for the concentration that lowers cell viability or growth by half.

Values taken from article PMC12856912, “Structure-Guided Semisynthesis of Blasticidin S–Amicetin Chimeras as Selective Ribosome Inhibitors” (Journal of the American Chemical Society, 2026).
